Source: patent publication US7803793B2, “Heterocyclic derived metalloprotease inhibitors” (Janssen Pharmaceutica NV, priority 2006, dated 2010)
Read-outs that look alike come from different tables or passages of the source.

Columns and labels:
MMP-9 = target: T1, MMP-9 (Homo sapiens, UniProt P14780); experiment: MMP enzymatic assay (Trupoint peptide), MMP-9; format: biochemical
T1 construct: Human MMP-9 catalytic domain (aa 107-446)
Method: [formula] • 1) Prepare appropriate 1×MMP assay buffer from 10× stock. […] The plate setup should be as follows, using GM6001 as plate reference compound:
• 6) Serially dilute 10 μl down the plate to achieve 1:3 dilutions in subsequent wells. After each dilution, change pipette tips to avoid compound carryover. […] Will need 10 ml enzyme solution per plate. Add enzyme to plate, 20 μl per well. Incubate 1 hr.
Prepare 5 ml total per plate. Add 10 ul of substrate to each well to achieve a final concentration of 100 nM in well. […] Read in plate reader.
(§1) Analysis Specifications • Calculate average background value from substrate/assay buffer wells • Subtract this from entire plate • Calculate average of DMSO wells for each enzyme. This is the positive control, 100% value. • For each well, calculate percent of control by dividing well value by the average DMSO value obtained above. • Paste percent of control values into Graphpad Prism 4.0.

MMP-2 = target: T2, MMP-2 (Homo sapiens, UniProt P08253); experiment: MMP enzymatic assay (Trupoint peptide), MMP-2; format: biochemical
T2 construct: Human MMP-2 full length (aa 1-660)
T2 sequence (P08253 30-660): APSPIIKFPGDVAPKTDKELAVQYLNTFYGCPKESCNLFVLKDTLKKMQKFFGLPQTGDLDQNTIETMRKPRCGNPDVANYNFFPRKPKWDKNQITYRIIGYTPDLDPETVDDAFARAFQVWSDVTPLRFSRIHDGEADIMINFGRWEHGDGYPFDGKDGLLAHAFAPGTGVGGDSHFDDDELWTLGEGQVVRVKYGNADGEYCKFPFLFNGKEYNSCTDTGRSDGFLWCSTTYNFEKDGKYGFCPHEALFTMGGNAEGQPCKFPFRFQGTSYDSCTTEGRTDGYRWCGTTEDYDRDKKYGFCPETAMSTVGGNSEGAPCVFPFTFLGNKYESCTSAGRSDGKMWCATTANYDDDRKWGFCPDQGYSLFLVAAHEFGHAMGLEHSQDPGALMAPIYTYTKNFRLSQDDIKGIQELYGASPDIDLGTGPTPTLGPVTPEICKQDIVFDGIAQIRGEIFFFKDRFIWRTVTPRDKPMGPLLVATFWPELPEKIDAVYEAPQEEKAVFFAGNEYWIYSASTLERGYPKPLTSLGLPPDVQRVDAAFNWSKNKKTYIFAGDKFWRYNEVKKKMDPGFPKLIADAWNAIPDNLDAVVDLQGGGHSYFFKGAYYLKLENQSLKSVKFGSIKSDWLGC
Method: [formula] • 1) Prepare appropriate 1×MMP assay buffer from 10× stock. […] Need to prepare a 2.5× concentration stock (2.5 μM) to achieve this concentration in 50 μl. Dilute compound to 2.5 mM in 100% DMSO (a 1:40 dilution), then dilute the 2.5 mM compound to 2.5 μM (1:1000) into 1× assay buffer. Make 1 ml 2.5 μM compound in assay buffer. • 4) Fill the rows B through P of a 384-well plate with assay buffer+0.1% DMSO. • 5) Add 30 ul of the 2.5 μM compound in assay buffer to the top row of the plate, doing each compound in triplicate. The plate setup should be as follows, using GM6001 as plate reference compound:
• 6) Serially dilute 10 μl down the plate to achieve 1:3 dilutions in subsequent wells. After each dilution, change pipette tips to avoid compound carryover. Discard the remaining 10 μl after diluting into the final row. • 7) Prepare enzyme dilutions at 2.5× of final desired concentration (see below). Will need 10 ml enzyme solution per plate. Add enzyme to plate, 20 μl per well. Incubate 1 hr.
• 8) Dilute the 500 μM Trupoint peptide 1:1000 into assay buffer to achieve a 5× working stock of 500 nM. Prepare 5 ml total per plate. Add 10 ul of substrate to each well to achieve a final concentration of 100 nM in well. Also prepare background subtraction wells by adding 10 μl 5× substrate to 40 μl assay buffer per well, typically do ˜32 wells. • 9) Incubate assay at room temperature for 15 min. Read in plate reader.
as §1

T1 sequence (P14780 107-446): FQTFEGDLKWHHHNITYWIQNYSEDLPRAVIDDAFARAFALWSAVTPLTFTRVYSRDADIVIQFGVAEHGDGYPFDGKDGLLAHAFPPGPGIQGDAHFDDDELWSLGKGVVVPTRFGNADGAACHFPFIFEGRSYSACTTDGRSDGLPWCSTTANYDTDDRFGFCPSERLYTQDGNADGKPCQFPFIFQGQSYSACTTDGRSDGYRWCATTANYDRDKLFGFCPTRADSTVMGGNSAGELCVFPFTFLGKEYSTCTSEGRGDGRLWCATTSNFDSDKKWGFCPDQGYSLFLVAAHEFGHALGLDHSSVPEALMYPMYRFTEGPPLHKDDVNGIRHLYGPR

Compound	IC50 (MMP-9)	IC50 (MMP-2)	IC50 (MMP-2; read-out: MMP-2 nM IC50)
Cc1ccc(Oc2ccc(N(Cc3cc(C)cn(O)c3=O)S(C)(=O)=O)cc2)cc1 [Compound 51, N-(1-Hydroxy-5-methyl-2-oxo-1,2-dihydro-pyridin-3-ylmethyl)-N-(4-p-tolyloxy-phenyl)-methanesulfonamide]	43.9 nM	241 nM	
Cc1ccc(Oc2ccc(N(Cc3cc(-c4ccccc4)cn(O)c3=O)S(C)(=O)=O)cc2)cc1 [Compound 52, N-(1-Hydroxy-2-oxo-5-phenyl-1,2-dihydro-pyridin-3-ylmethyl)-N-(4-p-tolyloxy-phenyl)-methanesulfonamide]	317 nM	914 nM	
COc1ccc(Oc2ccc(N(Cc3cccn(O)c3=O)S(C)(=O)=O)cc2)cc1 [Compound 53, N-(1-Hydroxy-2-oxo-1,2-dihydro-pyridin-3-ylmethyl)-N-[4-(4-methoxy-phenoxy)-phenyl]-methanesulfonamide]	14.7 nM	184 nM	
CS(=O)(=O)N(Cc1cccn(O)c1=O)c1ccc(Oc2ccc(OC(F)(F)F)cc2)cc1 [Compound 54, N-(1-Hydroxy-2-oxo-1,2-dihydro-pyridin-3-ylmethyl)-N-[4-(4-trifluoro-methoxy-phenoxy)-phenyl]-methanesulfonamide]	11.1 nM	466 nM	
Cc1ccc(C#Cc2ccc(N(Cc3cccn(O)c3=O)S(C)(=O)=O)cc2)cc1 [Compound 55, N-(1-Hydroxy-2-oxo-1,2-dihydro-pyridin-3-ylmethyl)-N-(4-p-tolylethynyl-phenyl)-methanesulfonamide]	> 10000 nM	> 10000 nM	
Cc1ccc(C#Cc2ccc(N(Cc3cccn(O)c3=S)S(C)(=O)=O)cc2)cc1 [Compound 56, N-(1-Hydroxy-2-thioxo-1,2-dihydro-pyridin-3-ylmethyl)-N-(4-p-tolylethynyl-phenyl)-methanesulfonamide]	> 10000 nM	> 10000 nM	
O=C1[C@H](NS(=O)(=O)c2ccc(Oc3ccc(C(F)(F)F)cc3)cc2)CCCN1O [Compound 58, (R)—N-(1-Hydroxy-2-oxo-piperidin-3-yl)-4-(4-trifluoromethyl-phenoxy)-benzenesulfonamide]	743 nM	46.7 nM	
Cc1ccc(S(=O)(=O)Cn2cccc(O)c2=O)cc1 [Compound 60, 3-Hydroxy-1-(toluene-4-sulfonylmethyl)-1H-pyridin-2-one]	1070 nM		468 nM
Cc1ccc(Oc2ccc(S(=O)(=O)Cn3cccc(O)c3=O)cc2)cc1 [Compound 61, 3-Hydroxy-1-(4-p-tolyloxy-benzenesulfonylmethyl)-1H-pyridin-2-one]	45.8 nM		16.7 nM
O=c1c(O)cccn1CS(=O)(=O)c1ccc(Oc2ccc(OC(F)(F)F)cc2)cc1 [Compound 62, 3-Hydroxy-1-[4-(4-trifluoromethoxy-phenoxy)-benzenesulfonylmethyl]-1H-pyridin-2-one]	4.91 nM	13.6 nM	
O=c1c(O)cccn1CS(=O)(=O)c1ccc(Br)s1 [Compound 63, 1-(5-Bromo-thiophene-2-sulfonylmethyl)-3-hydroxy-1H-pyridin-2-one]	668 nM	> 1000 nM	
COc1ccc(-c2ccc(S(=O)(=O)Cn3cccc(O)c3=O)s2)cc1 [Compound 64, 3-Hydroxy-1-[5-(4-methoxy-phenyl)-thiophene-2-sulfonylmethyl]-1H-pyridin-2-one]	522 nM		185 nM
O=c1c(O)cccn1CS(=O)(=O)c1ccc(Br)cc1 [Compound 65, 1-(4-Bromo-benzenesulfonylmethyl)-3-hydroxy-1H-pyridin-2-one]	> 1000 nM	> 1000 nM	
COc1ccc(Oc2ccc(S(=O)(=O)Cn3cccc(O)c3=O)cc2)cc1 [Compound 66, 3-Hydroxy-1-[4-(4-methoxy-phenoxy)-benzenesulfonylmethyl]-1H-pyridin-2-one]	56.1 nM		84.5 nM
COc1ccc(-c2ccc(S(=O)(=O)Cn3cccc(O)c3=O)cc2)cc1 [Compound 67, 3-Hydroxy-1-(4′-methoxy-biphenyl-4-sulfonylmethyl)-1H-pyridin-2-one]	> 10000 nM	> 10000 nM	
CN1CCCN(O)C(=O)[C@@H]1CN(c1ccc(Oc2ccc(C(F)(F)F)cc2)cc1)S(C)(=O)=O [Compound 68, (3S)-1-Hydroxy-3-{N-methanesulfonyl-N-[4-(4-trifluoromethylphenoxy)-phenyl]amino}methyl-4-methyl-1,4-diazepan-2-one]	406 nM	1250 nM	
O=C1[C@H](CS(=O)(=O)c2ccc(Oc3ccccc3)cc2)NCCCN1O [Compound 69, (3R)-1-Hydroxy-3-(4-phenoxy)benzenesulfonylmethyl-1,4-diazepan-2-one]	30.6 nM	46.7 nM	
COc1ccc(Oc2ccc(S(=O)(=O)C3CCCCN(O)C3=O)cc2)cc1 (centres unmarked) [Compound 70, 1-Hydroxy-3-[4-(4-methoxy-phenoxy)-benzenesulfonyl]-azepan-2-one]	31 nM		95.9 nM
O=C1C(S(=O)(=O)c2ccc(Oc3ccc(OC(F)(F)F)cc3)cc2)CCCCN1O (centres unmarked) [Compound 71, 1-Hydroxy-3-[4-(4-trifluoromethoxy-phenoxy)-benzenesulfonyl]-azepan-2-one]	44.4 nM	110 nM	
COc1ccc(Oc2ccc(S(=O)(=O)C3CCCN(O)C3=O)cc2)cc1 (centres unmarked) [Compound 72, 1-Hydroxy-3-[4-(4-methoxy-phenoxy)-benzenesulfonyl]-piperidin-2-one]	87.9 nM		167 nM
O=C1C(S(=O)(=O)c2ccc(-c3nc4cc(C(F)(F)F)ccc4[nH]3)cc2)CCCCN1O (centres unmarked) [Compound 74, 1-Hydroxy-3-[4-(5-trifluoromethyl-1H-benzoimidazol-2-yl)-benzenesulfonyl]-azepan-2-one]	> 1000 nM	> 1000 nM	
Cc1ccc2[nH]c(-c3ccc(S(=O)(=O)C4CCCCN(O)C4=O)cc3)nc2c1 (centres unmarked) [Compound 75, 1-Hydroxy-3-[4-(5-methyl-1H-benzoimidazol-2-yl)-benzenesulfonyl]-azepan-2-one]	> 1000 nM	> 1000 nM	
N#Cc1ccc2[nH]c(-c3ccc(S(=O)(=O)C4CCCCN(O)C4=O)cc3)nc2c1 (centres unmarked) [Compound 76, 2-[4-(1-Hydroxy-2-oxo-azepane-3-sulfonyl)-phenyl]-1H-benzimidazole-5-carbonitrile]	> 1000 nM	> 1000 nM	
COc1ccc2[nH]c(-c3ccc(S(=O)(=O)C4CCCCN(O)C4=O)cc3)nc2c1 (centres unmarked) [Compound 77, 1-Hydroxy-3-[4-(5-methoxy-1H-benzoimidazol-2-yl)-benzenesulfonyl]-azepan-2-one]	> 1000 nM	> 1000 nM	
O=C1C(S(=O)(=O)c2ccc(-c3nc4cc(F)ccc4[nH]3)cc2)CCCCN1O (centres unmarked) [Compound 78, 3-[4-(5-Fluoro-1H-benzoimidazol-2-yl)-benzenesulfonyl]-1-hydroxy-azepan-2-one]	846 nM		377 nM
O=C1C(S(=O)(=O)c2ccc(F)cc2)CCCCN1O (centres unmarked) [Compound 79, 3-(4-Fluoro-benzenesulfonyl)-1-hydroxy-azepan-2-one]	> 1000 nM	> 1000 nM	
O=C1C(S(=O)(=O)c2ccc(Br)cc2)CCCCN1O (centres unmarked) [Compound 81, 3-(4-Bromo-benzenesulfonyl)-1-hydroxy-azepan-2-one]	> 1000 nM	> 1000 nM	
O=C1C(S(=O)(=O)c2ccc(-c3ccc(Cl)cc3)cc2)CCCCN1O (centres unmarked) [Compound 82, 3-(4′-Chloro-biphenyl-4-sulfonyl)-1-hydroxy-azepan-2-one]	> 1000 nM	> 1000 nM	
